# Measurements published in patent US5506268A, “Use of isovaleramide as a mild anxiolytic and sedative agent” (priority 1993, dated 1996).
# Where “and” joins values, the source holds several entries; their conditions need not be identical. Identical values can stand only once. Entries after “also recorded” stand apart in the source; their conditions may differ. Like-named read-outs stand apart in the source and are kept apart here.
# How the values were obtained:
# male rats [1] = test: Hypnotic activity (loss of the righting reflex) in rats; details: Rattus norvegicus, ip, read-out: hypnotic dose
# Description: Hypnotic activity was assessed by simply determining the doses of the test substances (administered by IP injection) sufficient to cause a loss of the righting reflex (see above) and an apparent loss of consciousness and responsiveness.
# male rats [2] = test: Spontaneous locomotor activity measured electronically (sedative effect); type: in vivo, rat; details: for relative potency as strong sedative-hypnotic agent, valnoctamide versus isovaleramide: FIG. 3
# Description: General sedative effects can also be measured electronically by recording drug-induced decreases in spontaneous locomotor activity in treated experimental animals, as shown in FIG. 3.
# male mice [3] = details: Roszkowski and Govier 1962; cited from earlier work
# [4] = tested on: aggressive experimental animals and anxious humans; details: cited from earlier work
# [5] = cited from earlier work
# COL-2 = test: In vitro cytotoxicity (cell growth inhibition), COL-2; type: cell-based, human and murine; details: Homo sapiens, read-out: EC50 (concentration that inhibited cell growth by 50%)
# Description: (§1) The valepotriate compounds valtrate, didrovaltrate and acevaltrate were compared with isovaleramide with respect to their effects on various human and murine tumor cell lines. The cells at log-phase growth were treated with various concentrations of test substances for 48 hr. Growth rates were then determined by directly counting cell numbers or by protein determination. EC50 is the effective concentration of test substance that inhibited cell growth by 50%.
# LUC-1 = test: In vitro cytotoxicity (cell growth inhibition), LUC-1; type: cell-based, human and murine; details: read-out: EC50 (concentration that inhibited cell growth by 50%)
# Description: as §1
# P388 = test: In vitro cytotoxicity (cell growth inhibition), P388; type: cell-based, human and murine; details: Mus musculus, read-out: EC50 (concentration that inhibited cell growth by 50%)
# Description: as §1
# KB = test: In vitro cytotoxicity (cell growth inhibition), KB; type: cell-based, human and murine; details: Homo sapiens, read-out: EC50 (concentration that inhibited cell growth by 50%)
# Description: as §1
# HT-1080 = test: In vitro cytotoxicity (cell growth inhibition), HT-1080; type: cell-based, human and murine; details: Homo sapiens, read-out: EC50 (concentration that inhibited cell growth by 50%)
# Description: as §1
# KB-V1 = test: In vitro cytotoxicity (cell growth inhibition), KB-V1; type: cell-based, human and murine; details: Homo sapiens, read-out: EC50 (concentration that inhibited cell growth by 50%)
# Description: as §1
# BCA-1 = test: In vitro cytotoxicity (cell growth inhibition), BCA-1; type: cell-based, human and murine; details: read-out: EC50 (concentration that inhibited cell growth by 50%)
# Description: as §1
# MEL-2 = test: In vitro cytotoxicity (cell growth inhibition), MEL-2; type: cell-based, human and murine; details: read-out: EC50 (concentration that inhibited cell growth by 50%)
# Description: as §1
# male Sprague-Dawley rats [6] = test: Vogel Conflict (anxiolytic) Assay, punished licks; type: in vivo, rat; details: for anxiolytic activity in Vogel Conflict Assay: comparable dose levels (500-1000 mg/kg)
# Description: In the Vogel Conflict Paradigm, thirsty rats are given mild electric shocks through a metal water dispenser when they try to drink. The shock is unpleasant, but not severe enough to cause overt pain. When administered anxiolytic drugs, the rats lick the dispenser more often than controls. Assessment of anxiolytic effects is thus measured as an increased number of licks.
# Animals (male Sprague-Dawley rats, 250-300 g) are deprived of water for 24 hr and are then placed into a clear Plexiglass box (45 cm×25 cm×20 cm) which rests on a grid of stainless steel bars. A circuit between the grid bars and the drinking spout is established with a silver electrode in a drinking bottle placed in the chamber. The animals are allowed to lick the water dispenser for 5 min without shock; those animals that fail to lick are excluded from further study.
# The animals are returned to the home colony and are again deprived of water for 24 hr and replaced in the chamber and allowed to lick for 1 min without shock. Then a 1 milliamp current (shock) is maintained for 4 min at the drinking spout. Only the animals showing 50% suppression in licking behavior compared to the first session are included in further testing.
# The test substances are injected intraperitoneally (IP) after this session, and 30 min later the animals are again placed into the chamber. Again the animals are allowed to lick without shock for 1 min and the shock is instituted for the remaining 4 min. The number of punished licks during this time is used to assess anxiolytic activity.
# The "anxiolytic index" is defined as the ratio of the number of punished licks of test animals to that of control animals during a 4-min period. An anxiolytic index greater than one indicates anxiolytic ("calmative") activity. In practice, it is considered that significant "calmative" activity is observed when the anxiolytic index is greater than 1.5.
# Male Sprague-Dawley rats (250-300 g) were deprived of water for 24 hours before testing. The animals were allowed one five-minute period of drinking in the experimental chamber before receiving the test substances at the indicated doses. Thirty minutes later, the animals were returned to the chamber and allowed to drink for one minute without punishment. For the remaining four minutes, a shock was delivered to the drinking spout and the number of punished licks was recorded. Four or five animals were tested in each group.
# male mice [7] = test: Direct observation of sedation / general activity level; type: in vivo, mouse; details: for minimal effective dose: Mus musculus, mice, IP; for observed sedative effects: male mice
# Description: Sedative activity elicited by a test substance can be observed directly in experimental animals by a decrease in spontaneous locomotor activity, e.g., in open-field observation experiments. In such experiments, test animals are administered the test substance (usually by IP injection) and, after a suitable waiting period (usually 5-30 min), are placed into an open-field test chamber, which consists of a transparent plastic box with a clearly visible grid painted on the bottom (or floor). The numbers of excursions across the floor grids are then counted over a specified time period (usually 1-3 hours) and are subsequently compared with the numbers obtained from similarly treated saline controls. The number of grid crossings counted gives a direct measurement of the general activity level (measured as spontaneous locomotor activity) of each test animal in question. Sedative activity can be expressed as a percentage of the control level of spontaneous locomotor activity as measured by grid crossings per unit time.
# male mice [8] = test: Acute toxicity (LD50) and therapeutic index; type: in vivo; details: male mice, 4000 mg/kg IP
# Description: (§2) Convulsant activity was tested for N,N-diethylisovaleramide and isovaleramide itself. The potential for CNS-stimulating and convulsant properties was assessed by administering appropriate doses of the test substances IP to rodents (male mice and rats). […] At the highest dose of isovaleramide tested (4000 mg/kg IP), some deaths resulted among the test animals (male mice) after sleeping for several days, apparently from respiratory depression. […] Further testing of isovaleramide at still higher dose levels was precluded by its solubility limits and the consequently overly large injection volumes required.
# [9] = Acute toxicity (LD50) and therapeutic index; type: in vivo; details: mouse, in vivo; mice, IP
# Description: as §2
# experimental animals = details: cited from earlier work; for narcotic and hypnotic effects: experimental animals
# hepatic porphyria = details: literature; cited from earlier work
# [10] = tested on: various human and murine tumor cell lines; test: Cytotoxicity summary over tumor cell lines; type: cell-based; details: summary of Table 1
# Description: as §1
# male mice [11] = test: Hypnotic activity (loss of the righting reflex) in mice; type: in vivo; details: Mus musculus, ip
# [12] = in vivo; cited from earlier work
# male mice [13] = details: mouse, in vivo, ip
# Description: as §2
# rats = details: rat, in vivo
# Description: as §2
# male Sprague-Dawley rats [14] = details: injected at therapeutically effective doses; cited from earlier work
structure (smiles),measurement,setting,value
CCC(C)C(CC)C(N)=O (racemic) [valnoctamide],minimal effective dose,male rats [1],250 mg/kg and 1750 µmol/kg
same,"relative potency as strong sedative-hypnotic agent, valnoctamide versus isovaleramide",male rats [2],about ten times more potent than isovaleramide
same,therapeutic index,male mice [3],~11.4
same,tranquilizing and anxiety-reducing properties,[4],purported to exhibit tranquilizing and anxiety-reducing properties
same,water solubility,[5],very water insoluble
CC(=O)OCC1=CO[C@@H](OC(=O)CC(C)C)[C@H]2C1=C[C@H](OC(=O)CC(C)(C)OC(C)=O)[C@]21CO1 [Acevaltrate],EC50,"COL-2; Col2, COL-2, 48 hr",2.89 µg/mL
same,EC50,"LUC-1; LUC1, LUC-1, 48 hr",4.3 µg/mL
same,EC50,"P388; P388, 48 hr",0.88 µg/mL
same,EC50,KB; 48 hr,2.7 µg/mL
same,EC50,"HT-1080; HT-1080, 48 hr",2.05 µg/mL
same,EC50,"KB-V1; KB-V1, 48 hr",2.26 µg/mL
same,EC50,"BCA-1; BCA1, BCA-1, 48 hr",1.94 µg/mL
same,EC50,"MEL-2; MEL2, MEL-2, 48 hr",0.75 µg/mL
CC(=O)O[C@H]1C[C@@H]2C(COC(=O)CC(C)C)=CO[C@@H](OC(=O)CC(C)C)[C@@H]2[C@@]12CO2 [Didrovaltrate],EC50,"COL-2; Col2, COL-2, 48 hr",1.49 µg/mL
same,EC50,"LUC-1; LUC1, LUC-1, 48 hr",2.91 µg/mL
same,EC50,"P388; P388, 48 hr",0.19 µg/mL
same,EC50,KB; 48 hr,2.03 µg/mL
same,EC50,"HT-1080; HT-1080, 48 hr",0.7 µg/mL
same,EC50,"KB-V1; KB-V1, 48 hr",1.29 µg/mL
same,EC50,"BCA-1; BCA1, BCA-1, 48 hr",0.7 µg/mL
same,EC50,"MEL-2; MEL2, MEL-2, 48 hr",0.42 µg/mL
"CC(C)CC(N)=O [Isovaleramide, isovaleramide]",EC50,"COL-2; Col2, 48 h",> 20 µg/mL
same,increase in the number of punished licks over controls,"male Sprague-Dawley rats [6]; IP, 500-1000 mg/kg",approximate three-fold increase
same,minimal effective dose,"male mice [7]; naive observers, read-out: dose at which naive observers distinguish treated mice from saline controls",250 mg/kg
same,minimal effective dose,"male mice [7]; very astute observers, read-out: dose at which very astute observers distinguish treated mice from controls",100 mg/kg
same,observed sedative effects,male mice [7]; 1000 mg/kg IP,clearly sedentary
same,observed sedative effects,male mice [7]; 500 and 1000 mg/kg IP,much more pronounced
same,decrease in spontaneous locomotor activity,male rats [2]; 250 mg/kg IP,decreased locomotor activity to a level comparable to that induced by valnoctamide at 25 mg/kg
same,decrease in spontaneous locomotor activity,male rats [2]; 500 mg/kg IP,comparable to that induced by valnoctamide at 50 mg/kg IP
same,"relative potency as strong sedative-hypnotic agent, valnoctamide versus isovaleramide",male rats [2],only about one-tenth of the potent sedative-hypnotic properties exhibited by valnoctamide
same,survival,male mice [8],more than half of the experimental animals survived
same,mortality,male mice [8]; after sleeping for several days,some deaths
same,LD50,[9],> 4000 mg/kg
same,selectivity ratio,[9],~40
same,clinical usefulness as a hypnotic,"experimental animals; Impens 1912, Junkmann 1937",clinically useless as a hypnotic
same,narcotic and hypnotic effects,experimental animals,narcotic and hypnotic effects in experimental animals when administered in very high doses; also recorded: hypnotic activity only when administered to experimental animals in very high doses
same,EC50,"LUC-1; LUC1, 48 h",> 20 µg/mL
same,EC50,"P388; P388, 48 h",> 20 µg/mL
same,hepatic porphyria-inducing properties,hepatic porphyria,no hepatic porphyria-inducing properties
same,cytotoxicity,[10],no cytotoxicity
same,EC50,KB; 48 h,> 20 µg/mL
same,minimal effective dose,"male mice [11]; mice, IP, not hypnotic even at 1000 mg/kg, hypnotic at 2000 mg/kg, read-out: hypnotic dose",> 1000 mg/kg
same,minimal effective dose,"male mice [11]; mice, IP, not hypnotic even at this dose, read-out: hypnotic dose",> 9900 µmol/kg
same,minimal effective dose,"male mice [11]; very large doses approaching toxic dose levels, read-out: dose producing hypnosis",> 1000 mg/kg
same,EC50,"HT-1080; HT-1080, 48 h",> 20 µg/mL
same,EC50,"KB-V1; KB-V1, 48 h",> 20 µg/mL
same,EC50,"BCA-1; BCA1, 48 h",> 20 µg/mL
same,EC50,"MEL-2; MEL2, 48 h",> 20 µg/mL
same,anticonvulsant properties,[12],no anticonvulsant properties
same,water solubility,[5],essentially water soluble
CC(C)CC(=O)O [Isovaleric acid],narcotic and hypnotic effects,experimental animals,narcotic and hypnotic effects in experimental animals when administered in very high doses
"CCN(CC)C(=O)CC(C)C [N,N-Diethylisovaleramide, N,N-diethylisovaleramide]",dose with CNS-stimulating (excitant) activity,male Sprague-Dawley rats [6]; Vogel assay (FIG. 2),50 mg/kg
same,dose causing death following convulsive seizures,male mice [13],500 mg/kg
same,dose with potent CNS-stimulating and convulsant properties,male mice [13],250 mg/kg
same,"CNS-stimulating, anxiogenic and convulsant properties",rats,"CNS-stimulating, anxiogenic, and convulsant properties"
same,dose at which potent convulsant,rats; ip,250 mg/kg
CC(=O)OCC1=CO[C@@H](OC(=O)CC(C)C)[C@H]2C1=C[C@H](OC(=O)CC(C)C)[C@]21CO1 [Valtrate],EC50,"COL-2; Col2, 48 h",0.59 µg/mL
same,EC50,"LUC-1; LUC1, 48 h",2 µg/mL
same,EC50,"P388; P388, 48 h",0.06 µg/mL
same,EC50,KB; 48 h,0.51 µg/mL
same,EC50,"HT-1080; HT-1080, 48 h",0.41 µg/mL
same,EC50,"KB-V1; KB-V1, 48 h",0.72 µg/mL
same,EC50,"BCA-1; BCA1, 48 h",0.41 µg/mL
same,EC50,"MEL-2; MEL2, 48 h",0.39 µg/mL
CN1C(=O)CN=C(c2ccccc2)c2cc(Cl)ccc21 [diazepam],increase in the number of licks,male Sprague-Dawley rats [14],ten-fold increase
CCCC(N)=O [n-Butyramide],anxiolytic activity in Vogel Conflict Assay,male Sprague-Dawley rats [6]; IP,no significant anxiolytic activity
OC[C@H]1O[C@@](CO)(O[C@H]2O[C@H](CO)[C@@H](O)[C@H](O)[C@H]2O)[C@@H](O)[C@@H]1O [sucrose],anxiolytic activity in Vogel Conflict Assay,male Sprague-Dawley rats [6]; IP,no significant anxiolytic activity
